Reference: PubChem BioAssay (NCI)
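GI50 marks 50% less growth. The concentration for full growth arrest is given as TGI.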

Tests used:
Assay in all cases: DTP human tumour cell line panel, 384-well format
[1] = test system: A498 renal
[2] = test system: SK-OV-3 ovarian
[3] = test system: BT-549 breast
[4] = test system: HCC-2998 colon
[5] = test system: NCI-H23 lung
[6] = test system: CAKI-1 renal
[7] = test system: A549 NSCLC
[8] = test system: CCRF-CEM leukemia
[9] = test system: SF-268 CNS
[10] = test system: RPMI-8226 leukemia
[11] = test system: SK-MEL-5 melanoma
[12] = test system: U251 glioblastoma
[13] = test system: MALME-3M melanoma

CNC(=O)c1ccc(-c2cnc3ncc(Cc4ccc5ncccc5c4)n3n2)cc1F
GI50 [1]: > 100 µM
TGI [1]: > 100 µM
GI50 [2]: > 100 µM
TGI [2]: > 100 µM
GI50 [3]: > 100 µM
TGI [3]: > 100 µM
GI50 [4]: > 100 µM
TGI [4]: > 100 µM
GI50 [5]: > 100 µM
TGI [5]: > 100 µM
GI50 [6]: > 100 µM
TGI [6]: > 100 µM
GI50 [7]: > 100 µM
TGI [7]: > 100 µM
GI50 [8]: > 100 µM
TGI [8]: > 100 µM
GI50 [9]: > 76.9 µM
TGI [9]: > 100 µM
GI50 [10]: > 100 µM
TGI [10]: > 100 µM
GI50 [11]: > 100 µM
TGI [11]: > 100 µM
GI50 [12]: > 100 µM
TGI [12]: > 100 µM
GI50 [13]: > 100 µM
TGI [13]: > 100 µM
